This passage reports IC50 results from patent publication US10336761B2, “TGFβ receptor antagonist” (BRISTOL-MYERS SQUIBB COMPANY, priority 2015, dated 2019).

The target of this test is HIS-TGFβR1 T204D (Homo sapiens (Human), UniProt P36897, T204D). As to the kind of experiment: HTRF probe-displacement assay, HIS-TGFβR1 T204D. The format is binding. To be noted: 1 hour at room temperature. A general note: TR-FRET usually uses a lanthanide donor and a delayed reading to cut background.
HIS-TGFβR1 T204D, sequence (P36897 34-503 T204D): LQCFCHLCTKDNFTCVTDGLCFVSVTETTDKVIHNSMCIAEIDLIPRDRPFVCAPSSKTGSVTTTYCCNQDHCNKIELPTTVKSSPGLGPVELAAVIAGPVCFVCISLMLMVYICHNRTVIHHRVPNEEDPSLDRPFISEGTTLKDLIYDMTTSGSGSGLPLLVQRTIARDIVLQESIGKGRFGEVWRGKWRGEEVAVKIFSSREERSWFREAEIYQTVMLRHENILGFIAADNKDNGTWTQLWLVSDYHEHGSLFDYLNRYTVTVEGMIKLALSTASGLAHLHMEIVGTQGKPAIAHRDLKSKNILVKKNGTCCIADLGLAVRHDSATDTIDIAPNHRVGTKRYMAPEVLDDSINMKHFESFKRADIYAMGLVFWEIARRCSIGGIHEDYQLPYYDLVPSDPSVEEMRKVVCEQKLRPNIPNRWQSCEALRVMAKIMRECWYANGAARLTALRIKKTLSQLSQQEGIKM
In the case of `CC(=O)Nc1cc(Nc2nc(-c3ccccn3)nn3ccc(CNCC(C)(C)O)c23)ccn1` [Example 117, N-{4-[(5-{[(2-hydroxy-2-methylpropyl)amino]methyl}-2-(pyridin-2-yl)pyrrolo[2,1-f][1,2,4]triazin-4-yl)amino]pyridin-2-yl}acetamide], the IC50 – broadly, the midpoint of a concentration-inhibition curve – came out at 0.85 nM.
In turn, `Fc1cnccc1Nc1nc(-c2ccccn2)nn2ccc(CNCC3CCC3)c12` [Example 271, N-(5-{[(cyclobutylmethyl)amino]methyl}-2-(pyridin-2-yl)pyrrolo[2,1-f][1,2,4]triazin-4-yl)-3-fluoropyridin-4-amine] registered an IC50 of 1.2 nM.
`CC(O)c1cccc(-c2nc(Nc3ccncc3F)c3cccn3n2)n1` (stereo not drawn) [Example 32, 1-(6-{4-[(3-fluoropyridin-4-yl)amino]pyrrolo[2,1-f][1,2,4]triazin-2-yl}pyridin-2-yl)ethan-1-ol]: the IC50 was 70 nM.
In turn, `Fc1cnccc1Nc1nc(-c2ncccc2F)nn2cccc12` [Example 260, 3-fluoro-N-[2-(3-fluoropyridin-2-yl)pyrrolo[2,1-f][1,2,4]triazin-4-yl]pyridin-4-amine] gave an IC50 of 3.2 nM.
`COC(=O)Nc1cc(Nc2nc(-c3cccc(OC)n3)nn3cccc23)ccn1` [Example 68, Methyl N-(4-{[2-(6-methoxypyridin-2-yl)pyrrolo[2,1-f][1,2,4]triazin-4-yl]amino}pyridin-2-yl)carbamate]: the half-maximal inhibitory concentration (IC50) came to 5 nM.
Turning to `O=C(CN1CCCC1)Nc1cc(Nc2nc(-c3cccc(C(F)F)n3)nn3cccc23)ccn1` [Example 33, N-[4-({2-[6-(difluoromethyl)pyridin-2-yl]pyrrolo[2,1-f][1,2,4]triazin-4-yl}amino)pyridin-2-yl]-2-(pyrrolidin-1-yl)acetamide], the IC50 is 0.9 nM.
For `O=C(N[C@@H]1CCC[C@@H]1O)c1cnccc1Nc1nc(-c2cccc(C(F)F)n2)nn2cccc12` [Example 198, 4-({2-[6-(difluoromethyl)pyridin-2-yl]pyrrolo[2,1-f][1,2,4]triazin-4-yl}amino)-N-[(1R,2S)-2-hydroxycyclopentyl]pyridine-3-carboxamide], the IC50 came out at 140 nM.
The figure for `O=C(NCCN1CCCCC1)c1cnccc1Nc1nc(-c2ccccn2)nn2cccc12` [Example 144, N-[2-(piperidin-1-yl)ethyl]-4-{[2-(pyridin-2-yl)pyrrolo[2,1-f][1,2,4]triazin-4-yl]amino}pyridine-3-carboxamide] is 25 nM; for `COc1nc(-c2nc(Nc3ccncc3F)c3cccn3n2)cs1` [Example 249, 3-fluoro-N-[2-(2-methoxy-1,3-thiazol-4-yl)pyrrolo[2,1-f][1,2,4]triazin-4-yl]pyridin-4-amine] it is 5.8 nM; for `COc1cccc(-c2nc(Nc3ccncc3F)c3cc(NC(=O)CNC(=O)OC(C)(C)C)cn3n2)n1` [Example 108, tert-butyl N-[({4-[(3-fluoropyridin-4-yl)amino]-2-(6-methoxypyridin-2-yl)pyrrolo[2,1-f][1,2,4]triazin-6-yl}carbamoyl)methyl]carbamate] it is 330 nM.
Compound `COc1cccc(-c2nc(Nc3ccnc(NCCC(C)(C)O)c3)c3cccn3n2)n1` [Example 134, 4-[(4-{[2-(6-methoxypyridin-2-yl)pyrrolo[2,1-f][1,2,4]triazin-4-yl]amino}pyridin-2-yl)amino]-2-methylbutan-2-ol] came in with an IC50 of 360 nM.
`Fc1cc(Nc2nc(-c3ccccn3)nn3cccc23)ccn1` [Example 55, 2-fluoro-N-[2-(pyridin-2-yl)pyrrolo[2,1-f][1,2,4]triazin-4-yl]pyridin-4-amine] had an IC50 of 69 nM.
As for `CCOC(=O)c1cc2c(Nc3ccncc3)nc(-c3cccc(C)n3)nn2c1` [Example 216, Ethyl 2-(6-methylpyridin-2-yl)-4-[(pyridin-4-yl)amino]pyrrolo[2,1-f][1,2,4]triazine-6-carboxylate], the IC50 was found to be 33 nM.
The figure for `CC(C)(O)CNCc1ccn2nc(-c3ccccn3)nc(Nc3ccncc3F)c12` [Example 125, 1-[({4-[(3-fluoropyridin-4-yl)amino]-2-(pyridin-2-yl)pyrrolo[2,1-f][1,2,4]triazin-5-yl}methyl)amino]-2-methylpropan-2-ol] is 1.6 nM.
`COC(=O)Nc1cc2c(Nc3ccncc3F)nc(-c3cccc(OC)n3)nn2c1` [Example 73, Methyl N-{4-[(3-fluoropyridin-4-yl)amino]-2-(6-methoxypyridin-2-yl)pyrrolo[2,1-f][1,2,4]triazin-6-yl}carbamate] registered an IC50 of 74 nM.
In turn, `O=C(NCc1cocn1)c1cnccc1Nc1nc(-c2cccc(C(F)F)n2)nn2cccc12` [Example 195, 4-({2-[6-(difluoromethyl)pyridin-2-yl]pyrrolo[2,1-f][1,2,4]triazin-4-yl}amino)-N-(1,3-oxazol-4-ylmethyl)pyridine-3-carboxamide] came in with an IC50 of 26 nM.
For the compound `Cc1cccc(-c2nc(Nc3ccncn3)c3cccn3n2)n1` [Example 64, N-[2-(6-methylpyridin-2-yl)pyrrolo[2,1-f][1,2,4]triazin-4-yl]pyrimidin-4-amine], the concentration for half-maximal inhibition (IC50) turned out to be 2.2 nM.
In turn, `Fc1cnccc1Nc1nc(-c2nc(C(F)(F)F)cs2)nn2cccc12` [Example 17, N-(3-fluoropyridin-4-yl)-2-(4-(trifluoromethyl)thiazol-2-yl)pyrrolo[2,1-f][1,2,4]triazin-4-amine] showed an IC50 of 0.72 nM.
The figure for `Fc1cnccc1Nc1nc(-c2ccccn2)nn2ccc(CNCc3ccc4c(c3)OCO4)c12` [Example 294, N-(5-{[(2H-1,3-benzodioxol-5-ylmethyl)amino]methyl}-2-(pyridin-2-yl)pyrrolo[2,1-f][1,2,4]triazin-4-yl)-3-fluoropyridin-4-amine] is 0.4 nM.
`COc1cccc(-c2nc(Nc3ccncc3)c3c(Cl)ccn3n2)n1` [Example 91, N-[5-chloro-2-(6-methoxypyridin-2-yl)pyrrolo[2,1-f][1,2,4]triazin-4-yl]pyridin-4-amine] returned an IC50 of 49 nM.
The figure for `CS(=O)(=O)N(c1cc2c(Nc3ccncc3F)nc(-c3cccc(C(F)(F)F)n3)nn2c1)S(C)(=O)=O` [Example 111, N-{4-[(3-fluoropyridin-4-yl)amino]-2-[6-(trifluoromethyl)pyridin-2-yl]pyrrolo[2,1-f][1,2,4]triazin-6-yl}-N-methanesulfonylmethanesulfonamide] is 52 nM; for `NC(=O)c1cccc(-c2nc(Nc3ccncc3F)c3cccn3n2)n1` [Example 5, 6-{4-[(3-fluoropyridin-4-yl)amino]pyrrolo[2,1-f][1,2,4]triazin-2-yl}pyridine-2-carboxamide] it is 65 nM; for `COc1cccc(-c2nc(Nc3ccncc3F)c3cc(CNCC(C)(C)O)cn3n2)n1` [Example 207, 1-[({4-[(3-fluoropyridin-4-yl)amino]-2-(6-methoxypyridin-2-yl)pyrrolo[2,1-f][1,2,4]triazin-6-yl}methyl)amino]-2-methylpropan-2-ol] it is 1700 nM.
Compound `COc1cccc(-c2nc(Nc3ccncc3NC(=O)CN3CCOCC3)c3cccn3n2)n1` [Example 212, N-(4-{[2-(6-methoxypyridin-2-yl)pyrrolo[2,1-f][1,2,4]triazin-4-yl]amino}pyridin-3-yl)-2-(morpholin-4-yl)acetamide] yielded an IC50 of 3000 nM.
`CC(C)(C)OCCNC(=O)c1cnccc1Nc1nc(-c2cccc(C(F)F)n2)nn2cccc12` [Example 173, N-[2-(tert-butoxy)ethyl]-4-({2-[6-(difluoromethyl)pyridin-2-yl]pyrrolo[2,1-f][1,2,4]triazin-4-yl}amino)pyridine-3-carboxamide] showed a concentration for half-maximal inhibition (IC50) of 48 nM.
`CC(C)n1cc(NCc2ccn3nc(-c4ccccn4)nc(Nc4ccncc4F)c23)cn1` [Example 302, 3-fluoro-N-[5-({[1-(propan-2-yl)-1H-pyrazol-4-yl]amino}methyl)-2-(pyridin-2-yl)pyrrolo[2,1-f][1,2,4]triazin-4-yl]pyridin-4-amine]: the IC50 is 1.7 nM.
The figure for `Fc1cnccc1Nc1nc(-c2ccccn2)nn2ccc(CNc3ccc(-c4cnco4)cc3)c12` [Example 297, 3-fluoro-N-[5-({[4-(1,3-oxazol-5-yl)phenyl]amino}methyl)-2-(pyridin-2-yl)pyrrolo[2,1-f][1,2,4]triazin-4-yl]pyridin-4-amine] is 71 nM; for `Fc1cnccc1Nc1nc(-c2cccc(C(F)F)n2)nn2cccc12` [Example 78, N-{2-[6-(difluoromethyl)pyridin-2-yl]pyrrolo[2,1-f][1,2,4]triazin-4-yl}-3-fluoropyridin-4-amine] it is 0.92 nM.
In the case of `O=C(CC(F)(F)F)Nc1cc(Nc2nc(-c3cccc(C(F)(F)F)n3)nn3cccc23)ccn1` [Example 344, 3,3,3-trifluoro-N-[4-({2-[6-(trifluoromethyl)pyridin-2-yl]pyrrolo[2,1-f][1,2,4]triazin-4-yl}amino)pyridin-2-yl]propanamide], the IC50 was 5.1 nM.
Compound `COCc1noc(CNC(=O)c2cnccc2Nc2nc(-c3cccc(C(F)F)n3)nn3cccc23)n1` [Example 205, 4-({2-[6-(difluoromethyl)pyridin-2-yl]pyrrolo[2,1-f][1,2,4]triazin-4-yl}amino)-N-{[3-(methoxymethyl)-1,2,4-oxadiazol-5-yl]methyl}pyridine-3-carboxamide] displayed an IC50 of 22 nM.
With `COc1cccc(-c2nc(Nc3ccncc3F)c3cc(/C=C/CCO)cn3n2)n1` [Example 211, (3E)-4-{4-[(3-fluoropyridin-4-yl)amino]-2-(6-methoxypyridin-2-yl)pyrrolo[2,1-f][1,2,4]triazin-6-yl}but-3-en-1-ol], the IC50 turned out to be 30 nM.
`Cc1cccc(-c2nc(Nc3ccncc3C(=O)NC3COC3)c3cccn3n2)n1` [Example 165, 4-{[2-(6-methylpyridin-2-yl)pyrrolo[2,1-f][1,2,4]triazin-4-yl]amino}-N-(oxetan-3-yl)pyridine-3-carboxamide] yielded an IC50 of 14 nM.
The compound `Cc1cnc(CNCc2ccn3nc(-c4ccccn4)nc(Nc4ccncc4F)c23)cn1` [Example 305, 3-fluoro-N-[5-({[(5-methylpyrazin-2-yl)methyl]amino}methyl)-2-(pyridin-2-yl)pyrrolo[2,1-f][1,2,4]triazin-4-yl]pyridin-4-amine] registered an IC50 of 2.6 nM.
